In the NIST ThermoML archive (doi:10.1021/je060271a):

Conditions: 303.15 K, Liquid, Vibrating tube method

CCCCCCCC(=O)OCC(COC(=O)CCCCCCC)(COC(=O)CCCCCCC)COC(=O)CCCCCCC [pentaerythritol tetraoctanoate]
Conditions	mass density [kg/m3]
17535 kPa	966
17571 kPa	965.8
17601 kPa	966
17637 kPa	966
17674 kPa	966.1
17705 kPa	966
17742 kPa	966.1
17773 kPa	966.1
17810 kPa	966
17848 kPa	966.2
17879 kPa	966.2
17916 kPa	966.1
17948 kPa	966.1
17985 kPa	966.2
18024 kPa	966.2
18056 kPa	966
18095 kPa	966.2
18133 kPa	966.3
18165 kPa	966.2
18205 kPa	966.3
18238 kPa	966.4
18278 kPa	966.3
18311 kPa	966.4
18351 kPa	966.5
18391 kPa	966.5
18424 kPa	966.4
18465 kPa	966.4
18499 kPa	966.5
18540 kPa	966.5
18573 kPa	966.5
18614 kPa	966.5
18656 kPa	966.5
18690 kPa	966.5
18732 kPa	966.6
18768 kPa	966.6
18810 kPa	966.7
18851 kPa	966.7
18886 kPa	966.8
18930 kPa	966.6
18966 kPa	966.7
19009 kPa	966.9
19045 kPa	966.8
19087 kPa	966.7
19131 kPa	966.9
19168 kPa	966.8
19211 kPa	966.9
19248 kPa	967
19292 kPa	967.1
19338 kPa	966.9
19375 kPa	966.9
19420 kPa	966.9
19458 kPa	967
19502 kPa	967
19548 kPa	967.1
19586 kPa	967.1
19632 kPa	967.1
19677 kPa	967.1
19715 kPa	967.1
19762 kPa	967.2
19802 kPa	967.2
19851 kPa	967.3
19890 kPa	967.2
19938 kPa	967.3
19986 kPa	967.3
20025 kPa	967.4
20074 kPa	967.3
20115 kPa	967.4
20163 kPa	967.4
20203 kPa	967.4
20252 kPa	967.5
20302 kPa	967.4
20344 kPa	967.4
20397 kPa	967.5
20440 kPa	967.5
20489 kPa	967.5
20532 kPa	967.5
20582 kPa	967.6
20632 kPa	967.7
20674 kPa	967.7
20724 kPa	967.7
20766 kPa	967.8
20817 kPa	967.8
20872 kPa	967.7
20948 kPa	968
21030 kPa	968
21112 kPa	968
21144 kPa	968
21170 kPa	968
21194 kPa	968
21222 kPa	968
21244 kPa	967.9
21272 kPa	968
21299 kPa	968
21322 kPa	968.1
21350 kPa	968
21374 kPa	968
21402 kPa	968.1
21425 kPa	968.1
21454 kPa	968.2
21478 kPa	968.1
21506 kPa	968.1
21533 kPa	968.2
21557 kPa	968.2
21585 kPa	968.2
21610 kPa	968.2
21636 kPa	968.2
21666 kPa	968.2
21690 kPa	968.2
21721 kPa	968.4
21743 kPa	968.2
21775 kPa	968.2
21798 kPa	968.3
21827 kPa	968.3
21850 kPa	968.4
21880 kPa	968.3
21909 kPa	968.3
21933 kPa	968.4
21964 kPa	968.4
21988 kPa	968.3
22017 kPa	968.4
22049 kPa	968.5
22071 kPa	968.4
22101 kPa	968.5
22126 kPa	968.5
22158 kPa	968.6
22186 kPa	968.5
22214 kPa	968.5
22241 kPa	968.7
22266 kPa	968.6
22297 kPa	968.6
22328 kPa	968.6
22355 kPa	968.7
22385 kPa	968.7
22411 kPa	968.7
22441 kPa	968.7
22473 kPa	968.8
22499 kPa	968.6
22531 kPa	968.8
22556 kPa	968.7
22588 kPa	968.8
22614 kPa	968.8
22647 kPa	968.8
22677 kPa	968.8
22703 kPa	968.9
22736 kPa	968.8
22762 kPa	968.9
22795 kPa	968.9
22823 kPa	968.9
22855 kPa	969
22884 kPa	969
22910 kPa	968.9
22944 kPa	968.9
22976 kPa	969
23001 kPa	969
23032 kPa	968.9
23066 kPa	969.2
23092 kPa	969
23125 kPa	969.1
23153 kPa	968.9
23185 kPa	969.2
23220 kPa	969.1
23246 kPa	969.2
23276 kPa	969.1
23312 kPa	969.2
23339 kPa	969.2
23371 kPa	969.2
23405 kPa	969.2
23434 kPa	969.3
23465 kPa	969.3
23500 kPa	969.2
23527 kPa	969.3
23561 kPa	969.3
23590 kPa	969.3
23626 kPa	969.4
23656 kPa	969.3
23690 kPa	969.4
23721 kPa	969.3
23753 kPa	969.5
23781 kPa	969.4
23817 kPa	969.5
23853 kPa	969.5
23880 kPa	969.5
23917 kPa	969.4
23950 kPa	969.5
23980 kPa	969.6
24016 kPa	969.5
24045 kPa	969.7
24080 kPa	969.5
24110 kPa	969.7
24146 kPa	969.6
24184 kPa	969.6
24212 kPa	969.6
24254 kPa	969.8
24280 kPa	969.7
24317 kPa	969.7
24348 kPa	969.8
24384 kPa	969.8
24420 kPa	969.7
24450 kPa	969.8
24488 kPa	969.9
24520 kPa	969.9
24557 kPa	969.8
24589 kPa	969.8
24627 kPa	969.8
24658 kPa	969.9
24697 kPa	969.9
24728 kPa	969.8
24766 kPa	970
24804 kPa	969.9
24836 kPa	969.9
24874 kPa	970.1
24906 kPa	970.1
24945 kPa	970.2
24978 kPa	970.1
25016 kPa	970.1
25048 kPa	970.2
25087 kPa	970.1
25126 kPa	970.1
25159 kPa	970.1
25199 kPa	970.2
25232 kPa	970.1
25272 kPa	970.2
25310 kPa	970.3
25343 kPa	970.2
25382 kPa	970.2
25416 kPa	970.2
25457 kPa	970.3
25491 kPa	970.4
25532 kPa	970.3
25575 kPa	970.3
25611 kPa	970.5
25653 kPa	970.3
25689 kPa	970.7
25726 kPa	970.3
25768 kPa	970.5
25804 kPa	970.5
25845 kPa	970.5
25882 kPa	970.6
25929 kPa	970.6
25969 kPa	970.5
26006 kPa	970.5
26051 kPa	970.7
26084 kPa	970.7
26119 kPa	970.7
26164 kPa	970.7
26203 kPa	970.7
26241 kPa	970.8
26285 kPa	970.8
26318 kPa	970.7
26384 kPa	970.8
26413 kPa	970.8
26446 kPa	970.8
26474 kPa	970.9
26520 kPa	970.9
26558 kPa	971
26597 kPa	971
26642 kPa	970.9
26681 kPa	971.1
26720 kPa	971
26767 kPa	971.1
26806 kPa	971.1
26846 kPa	971.1
26893 kPa	971.1
26934 kPa	971.2
26974 kPa	971
27015 kPa	971.2
27064 kPa	971.2
27104 kPa	971.2
27153 kPa	971.2
27193 kPa	971.2
27234 kPa	971.3
27275 kPa	971.4
27317 kPa	971.3
27366 kPa	971.3
27407 kPa	971.4
27450 kPa	971.4
27500 kPa	971.4
27543 kPa	971.4
27585 kPa	971.6
27636 kPa	971.4
27678 kPa	971.4
27720 kPa	971.6
27763 kPa	971.5
27814 kPa	971.6
27856 kPa	971.5
27907 kPa	971.5
27950 kPa	971.7
27993 kPa	971.7
28045 kPa	971.7
28089 kPa	971.7
28134 kPa	971.8
28178 kPa	971.9
28230 kPa	971.9
28273 kPa	971.8
28325 kPa	972
28369 kPa	971.9
